These results are taken from patent US4356306A, “Water-soluble derivatives of 6,6'-methylene-bis-(2,2,4-trimethyl-1,2-dihydroquinoline)” (Material Vegyipari Szovetkezet, priority 1979, dated 1982).

Series [1] in a line: inhibitor activity on the polymerization of acrylic acid at 60° C. In kind it is biochemical. As to conditions: control 16 hours. The protocol:
The efficiency of the compounds of the invention was investigated in vitro by measuring the inhibitor activity of the compounds on the polymerization of acrylic acid at 60° C., and comparing this activity with that of 3.5-di-tert.butyl-4-hydroxy-toluene (BHT) and L-ascorbic acid. The radical binding activity of the compounds was studied.
The times required to polymerization are given in the next Table.

A further series deals with mice. Briefly: protection against hepatotoxic dimethylsulfoxide. In kind it is in vivo. The conditions noted are these: for death after dimethylsulfoxide / protective activity against dimethylsulfoxide: 100 mg. disulfonic acid or 60 mg. disulfonamide in water and dimethylsulfoxide, i.p. or s.c. Here is the method:
The surrounding carcinogens play an important role in the formation of malignant tumors. These carcinogens contain free radicals or they become carcinogenic in the living organism. […] As the radical reactions may be controlled by the antioxidants, they may be employed as therapeutic and as prophylactic agents as well. […] A hepatotoxic substance had to be administered which was simultaneously carcinogenic. Dimethylsulfoxide was suitable. 0.3 ml. of dimethylsulfoxide/mice was administered i.p. or s.c. in an aqueous solution and as a result 7 animals died within 10 days out of 10 test animals.

The test system of the next series is cancer of the bladder. The conditions noted are these: large amount of Vitamin-C; cited from earlier work.
A short description of the next series: plasma concentration. In kind it is in vivo. An excerpt:
(§1) The concentration of the found MTDQ was the same as if it had not been the compound of the invention that had been administered, but rather MTDQ. […] The radioprotective activity of the water-soluble antioxidant is presumably due to the fact that the radiation energy is predominantly concentrated on the antioxidant and further that in addition to its membrane stabilizing activity the radicals and peroxides formed in the course of the irradiation, are inactivated by the antioxidant, in the well oxygenated cells.

In a further series the test system is malignant tumor tissues. The conditions noted are these: cited from earlier work.
A short description of series [2]: detection of MTDQ in the liver. As to conditions: after administration of the compound of the invention. In kind it is in vivo.
Description: as §1

For series [3] the following is noted: known radioprotective compounds; cited from earlier work.
The next series has as its system CFLP mice. Briefly: protection against LD90 radiodose after i.p. administration. The class given is in vivo. As to conditions: 1000 mg./kg. i.p., preferably 2 hours before LD90 radiodose. Here is the method:
The unexpected activity of the new compounds has been observed during a total body irradiation. As test animals CFLP mice of an average weight of 20 to 22 g. were used, each group consisted of 8 male and 8 female animals. The control group was irradiated with 7 Gy (total body irradiation) and the test groups were treated per os for 10 days with the new water-soluble antioxidant of the invention at a daily dose of 0.5 g./kg. The treatment was followed by 7 Gy total body irradiation. There was no significant difference between the various water-soluble antioxidants and as a result within 30 days two animals of the control group were alive and an average of 12 animals survived in the treated group. A significant result was obtained with X^2 probe, p<0.001 and the Dose Modification Factor (DMF), which is the number of dead animals in the control group related to the number of dead animals in the treated group, amounted to 3.5 at LD80. A dose of 1000 mg./kg. bodyweight of MTDQ disulfonic acid Na was administered i.p. preferably 2 hours before irradiation with an LD90 radiodose and a 100% protective activity was obtained. […] It is known that the radioprotective compounds protect the healthy tissue cells better than the malignant tumor cells.

On to `CC1(C)C=C(CS(=O)(=O)O)c2cc(Cc3ccc4c(c3)C(CS(=O)(=O)O)=CC(C)(C)N4)ccc2N1` [MTDQ-disulfonic acid], for which, in series [1] (concentration not given), the “times required to polymerization” value is 400 h. In addition, in the series with mice, the death after dimethylsulfoxide entry is “no death was observed” and the “protective activity against dimethylsulfoxide” value is 100%.
For `O=C1O[C@H]([C@@H](O)CO)C(O)=C1O` [L-ascorbic acid], the “cancer of the bladder by beta-naphthyl-amine” value with cancer of the bladder is reported as “does not cause cancer of the bladder”. In addition, the “times required to polymerization” value in series [1] (0.02%) stood at 18 h.
As for `CC1=CC(C)(C)Nc2ccc(Cc3ccc4c(c3)C(C)=CC(C)(C)N4)cc21` [MTDQ, 6,6'-methylene-bis(2,2,4-trimethyl-1,2-dihydroquinoline)], the “concentration of found MTDQ compared with administration of MTDQ itself” value in “plasma concentration” (after administration of the compound of the invention) was “the same”. Also, the “MTDQ in the plasma as metabolite (desulfonation)” value in the series “plasma concentration” (after administration of the new compounds) is given as “found in the plasma”. Besides, in the series with malignant tumor tissues (in vivo), the “radiosensibility of malignant tumor tissues” value is given as “increase the radiosensibility of malignant tumor tissues”. In addition, the “reduction of radiodose for the same effect” value in the series with malignant tumor tissues (radiosensitive tumors) is listed as “at least 50%”. For the same molecule, the “MTDQ in the liver” value in series [2] is “could be detected in the liver”.
As to `Cc1cc(C(C)(C)C)c(O)c(C(C)(C)C)c1` [BHT, 3.5-di-tert.butyl-4-hydroxy-toluene], the “times required to polymerization” value in series [1] (0.02%) came out at 120 h.
Take `CC1(C)C=C(CS(N)(=O)=O)c2cc(Cc3ccc4c(c3)C(CS(N)(=O)=O)=CC(C)(C)N4)ccc2N1` [disulfonamide]: in the series on mice, the death after dimethylsulfoxide result is given as “no death was observed” and the “protective activity against dimethylsulfoxide” value is listed as 100%.
`Br.Br.N=C(N)SCCN` [AET, S-2-aminoethyl-isothiuronium-dihydrobromide]: in series [3], the “duration of effect after administration” value is “extremely limited” and the “effective doses as radioprotective compound” value (“effective doses” for short) is recorded as “effective only at subtoxic doses”.
`C[S+](C)[O-]` [Dimethylsulfoxide]: in the series on mice (0.3 ml./mice i.p. or s.c., out of 10 test animals), the “animals died within 10 days” value is reported as 7 animals.
With `N[C@@H](CS)C(=O)O` [cysteine], in series [3], the “duration of effect after administration” value is given as “extremely limited” and the “effective doses” value was “effective only at subtoxic doses”.
Consider `NCCS` [cysteamine, beta-mercapto-ethyl-amine], for which, in series [3], the “duration of effect after administration” value was “extremely limited” and the “effective doses” value is listed as “effective only at subtoxic doses”.
Take `NCCCNCCSP(=O)(O)O` [WR 2721, S-2-(3-aminopropyl)-aminoethyl-phosphorothioic acid]: in series [3], the “duration of effect after administration” value is “extremely limited” and the “effective doses” value is given as “effective only at subtoxic doses”.
In the series with CFLP mice, `CC1(C)C=C(CS(=O)(=O)O)c2cc(Cc3ccc4c(c3)C(CS(=O)(=O)O)=CC(C)(C)N4)ccc2N1` [MTDQ disulfonic acid Na, 6,6'-methylene-bis(2,2-dimethyl-4-methanesulfonic acid Na-1,2-dihydroquinoline)] came in with a protective activity of 100%.
